Experiments:
[1] = fluorescence analysis of structure after photon irradiation; type: physicochemical; details: 3 mg irradiated by 50 MV photons, 30 Gy
Method: (§1) The details of the procedure of the present example are as follow: 3 mg of adriamycin is irradiated by 50 MV of photons with a dosage of 30 Gy (gray). […] A ^12C atom of the adriamycin molecule is converted into a ^11C positron nuclide and an ^16O atom therein is converted into a ^15O positron nuclide.

SD rats = test: distribution after tail vein injection of 11C/15O-labeled adriamycin; type: in vivo, rat; details: labeled with 11C and 15O
Method: as §1

porphyrin synthesis = details: in vivo
Excerpt: Example 4 relates to a study of imaging of porphyrin synthesis in-vivo.
Porphyrin plays an important role in an organism. It is important for the study of physiological conditions, biochemical condition, and diseases to know the porphyrin synthesis in vivo. 5-ALA is a precursor of the porphyrin synthesis. After it is irradiated by photons of 50 MV with a dosage of 30 Gy (gray), a ^12C atom of the 5-ALA molecule is converted into an ^11C positron nuclide and a ^16O atom therein is converted into an ^15O positron nuclide.

Row | Structure (SMILES) | structure after the irradiation (fluorescence analysis) [1] | site of accumulation in vivo (SD rats) | main organ of porphyrin synthesis (porphyrin synthesis)
1 | COc1cccc2c1C(=O)c1c(O)c3c(c(O)c1C2=O)C[C@@](O)(C(=O)CO)C[C@@H]3O[C@H]1C[C@H](N)[C@H](O)[C@H](C)O1 [adriamycin] | no change in the structure | accumulates at the heart | –
2 | NCC(=O)CCC(=O)O [5-ALA] | – | – | liver is the main organ of porphyrin synthesis

Source: US8709381B2, “Compound containing a carbon or an oxygen isotope, preparation and use thereof, and composition comprising thereof” (Beijing Top Grade Medical Equipment Co., Ltd, priority 2010, dated 2014)
